Experimental data from PMC5011342, “A high throughput drug screening assay to identify compounds that promote oligodendrocyte differentiation using acutely dissociated and purified oligodendrocyte precursor cells” (BMC Research Notes, 2016).
Several values for one entry are separate records, joined by “and”; a condition that tells them apart may be missing. Identical values can stand only once. Like-named read-outs stand apart in the source and are kept apart here.

How the values were obtained:
[1] = test system: acutely dissociated and purified rat OPCs; experiment: Acute OL differentiation assay (MBP expression/cell, immunofluorescent image quantification); assay type: cell-based; conditions: for activation at 0.4 µM / activation at 2 µM / activation at 10 µM / activation at 0.08 µM: Rattus norvegicus
Outline: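 Oligodendrocyte precursor cells were enriched from P6-P7 Sprague–Dawley rat brains by immunopanning (RAN-2 and GalC depletion, O4 selection), plated at 5000 cells/well in serum-free, mitogen-free differentiation media on PDL/laminin 96-well view plates, centrifuged at 200×g, and pre-incubated 1–2 h before test compounds were added in quadruplicate. On DIV4, cells were fixed, stained for MBP and DAPI, imaged automatically, and MBP expression per cell was quantified.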

[2] = test system: expanded OPCs; experiment: cells; conditions: for viability at 0.1 µM / viability at 1 µM / viability at 10 µM: Rattus norvegicus, 72 h
Outline: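 Expanded OPCs seeded at 10,000 cells/well in differentiation media, then exposed to NCC library compounds at 10, 1 and 0.1 µM (quadruplicate, 0.1% DMSO) for three days. Viability read as alamarBlue fluorescence (560/590 nm) after 4 h at 37 °C; tunicamycin 5 ng/ml served as toxicity control.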

[3] = test compound at 0.4 uM, NCC library screen, sheet "All OLga data", relative to quetiapine, read-out: 0.4 uM (% Quet)
[4] = test compound at 2 uM, NCC library screen, sheet "All OLga data", relative to quetiapine, read-out: 2 uM (% Quet)
[5] = read-out: 0.1 µM (% DMSO), alamarBlue viability, NCC library compound at 0.1 µM, sheet "All Tox data"
[6] = read-out: 1 µM (% DMSO), alamarBlue viability, NCC library compound at 1 µM, sheet "All Tox data"
[7] = read-out: 10 µM (% DMSO), alamarBlue viability, NCC library compound at 10 µM, sheet "All Tox data"
[8] = test compound at 10 uM, NCC library screen, sheet "All OLga data", relative to quetiapine, read-out: 10 uM (% Quet)
[9] = test compound at 2 uM, MBP expression relative to quetiapine, NCC library screen, sheet "All OLga data", read-out: 2 uM (% Quet)
[10] = alamarBlue viability of expanded OPCs, compound at 0.1 µM, relative to DMSO control
[11] = alamarBlue viability of expanded OPCs, compound at 1 µM, relative to DMSO control
[12] = alamarBlue viability of expanded OPCs, compound at 10 µM, relative to DMSO control
[13] = 2 uM test compound, relative to quetiapine, sheet "All OLga data", read-out: OL differentiation, 2 uM (% Quet)
[14] = 10 uM test compound, relative to quetiapine, sheet "All OLga data", read-out: OL differentiation, 10 uM (% Quet)
[15] = test compound at 10 uM, MBP expression relative to quetiapine, NCC library screen, sheet "All OLga data", read-out: 10 uM (% Quet)
[16] = 2 uM test compound, relative to quetiapine, sheet "All OLga data"

SMILES: NCCc1ccc(O)c(O)c1 [Dopamine]
- activation at 0.4 µM [1, 3]: 3.4%
- activation at 2 µM [1, 4]: -24.9%
- viability at 0.1 µM [2, 5]: 87%
- viability at 1 µM [2, 6]: 74.7%
- viability at 10 µM [2, 7]: 51.7%

SMILES: CCN1CC(CCN2CCOCC2)C(c2ccccc2)(c2ccccc2)C1=O (stereo not shown) [Doxapram]
- activation at 2 µM [1, 4]: -8.9%
- activation at 10 µM [1, 8]: 14.8%
- viability at 0.1 µM [2, 5]: 89%
- viability at 1 µM [2, 6]: 89.2%
- viability at 10 µM [2, 7]: 79.9%

SMILES: COc1cc2nc(N3CCN(C(=O)C4COc5ccccc5O4)CC3)nc(N)c2cc1OC (stereo not shown) [Doxazosin]
- activation at 0.4 µM ([1]; test compound at 0.4 uM, MBP expression relative to quetiapine, NCC library screen, sheet "All OLga data", read-out: 0.4 uM (% Quet)): 2%
- activation at 2 µM [1, 9]: -27.2%
- 0.1 µM (% DMSO) [2, 10]: 140.5 % DMSO
- 1 µM (% DMSO) [2, 11]: 157.6 % DMSO
- 10 µM (% DMSO) [2, 12]: 18.9 % DMSO

SMILES: CN(C)CCC=C1c2ccccc2COc2ccccc21 [Doxepin]
- activation at 2 µM [1, 13]: 47.3%
- activation at 10 µM [1, 14]: 37.1%
- activation at 0.4 µM [1, 3]: 2.7%
- activation at 2 µM [1, 4]: 36%
- viability at 0.1 µM ([2]; read-out: 0.1 µM (% DMSO), alamarBlue viability of expanded OPCs, compound at 0.1 µM, sheet All Tox data): 81.5%
- viability at 1 µM ([2]; read-out: 1 µM (% DMSO), alamarBlue viability of expanded OPCs, compound at 1 µM, sheet All Tox data): 85%
- viability at 10 µM ([2]; read-out: 10 µM (% DMSO), alamarBlue viability of expanded OPCs, compound at 10 µM, sheet All Tox data): 64.4%
- 0.1 µM (% DMSO) [2, 10]: 109.3 % DMSO
- 1 µM (% DMSO) [2, 11]: 91.6 % DMSO
- 10 µM (% DMSO) [2, 12]: 52.1 % DMSO

SMILES: C[C@H]1c2cccc(O)c2C(=O)C2=C(O)[C@]3(O)C(=O)C(C(N)=O)=C(O)[C@@H](N(C)C)[C@@H]3[C@@H](O)[C@@H]21 [Doxycycline]
- activation at 2 µM [1, 9]: 4.2%
- activation at 10 µM [1, 15]: -18.6%
- 0.1 µM (% DMSO) [2, 10]: 95.2 % DMSO
- 1 µM (% DMSO) [2, 11]: 91.4 % DMSO
- 10 µM (% DMSO) [2, 12]: 82.8 % DMSO

SMILES: CN(C)CCOC(C)(c1ccccc1)c1ccccn1 (stereo not shown) [Doxylamine]
- activation at 2 µM [1, 13]: -9.7%
- activation at 10 µM [1, 14]: 0.7%
- viability at 0.1 µM [2, 5]: 96%
- viability at 1 µM [2, 6]: 86.6%
- viability at 10 µM [2, 7]: 75%

SMILES: O=C(CCCN1CC=C(n2c(=O)[nH]c3ccccc32)CC1)c1ccc(F)cc1 [Droperidol]
- activation at 2 µM [1, 13]: 7.3%
- activation at 10 µM [1, 14]: -13.2%
- viability at 0.1 µM [2, 5]: 90.8%
- viability at 1 µM [2, 6]: 97.2%
- viability at 10 µM [2, 7]: 71.6%

SMILES: CS(=O)(=O)c1ccc(-c2cc(Br)sc2-c2ccc(F)cc2)cc1 [DuP 697]
- activation at 0.4 µM [1, 3]: -42.3%
- activation at 2 µM [1, 4]: -109%
- viability at 0.1 µM [2, 5]: 89.6%
- viability at 1 µM [2, 6]: 114%
- viability at 10 µM [2, 7]: 10.7%

SMILES: CNCC[C@H](Oc1cccc2ccccc12)c1cccs1 [Duloxetine]
- activation at 0.08 µM ([1]; read-out: 0.08 uM (% Quet)): -5.1%
- activation at 0.4 µM ([1]; read-out: 0.4 uM (% Quet)): -12.9%
- activation at 0.08 µM ([1]; read-out: OL differentiation, 0.08 uM (% Quet)): 18.3%
- activation at 0.4 µM ([1]; read-out: OL differentiation, 0.4 uM (% Quet)): -7.6%
- 0.1 µM (% DMSO) [2]: 56.7 % DMSO and 82.6 % DMSO
- 1 µM (% DMSO) [2]: 45.5 % DMSO
- 10 µM (% DMSO) [2]: 12.6 % DMSO
- viability at 1 µM ([2]; read-out: 1 µM (% DMSO)): 30.3%
- viability at 10 µM ([2]; read-out: 10 µM (% DMSO)): 9.7%

SMILES: O=c1c2ccccc2[se]n1-c1ccccc1 [Ebselen]
- activation at 0.08 µM ([1]; test compound at 0.08 uM, NCC library screen, sheet "All OLga data", relative to quetiapine, read-out: 0.08 uM (% Quet)): 131%
- activation at 0.4 µM [1, 3]: -95.7%
- viability at 0.1 µM [2, 5]: 61.7%
- viability at 1 µM [2, 6]: 30.7%
- viability at 10 µM [2, 7]: 10.1%

SMILES: Clc1ccc(COC(Cn2ccnc2)c2ccc(Cl)cc2Cl)cc1 (stereo not shown) [Econazole]
- activation at 0.4 µM [1, 3]: 90%
- activation at 2 µM [1, 4]: -178%
- 0.1 µM (% DMSO) [2, 10]: 178.0 % DMSO
- 1 µM (% DMSO) [2, 11]: 195.6 % DMSO
- 10 µM (% DMSO) [2, 12]: 29.6 % DMSO

SMILES: CC[N+](C)(C)c1cccc(O)c1 [Edrophonium]
- activation at 2 µM [1, 4]: 10.5%
- activation at 10 µM [1, 8]: 10.8%
- viability at 0.1 µM [2, 5]: 93%
- viability at 1 µM [2, 6]: 91%
- viability at 10 µM [2, 7]: 100%

SMILES: O=C1Nc2ccc(Cl)cc2[C@@](C#CC2CC2)(C(F)(F)F)O1 [Efavirenz]
- activation at 0.4 µM ([1]; 0.4 uM test compound, relative to quetiapine, sheet "All OLga data", read-out: OL differentiation, 0.4 uM (% Quet)): 3.8%
- activation at 2 µM [1, 13]: 40.9%
- viability at 0.1 µM [2, 5]: 90.4%
- viability at 1 µM [2, 6]: 85.6%
- viability at 10 µM [2, 7]: 16.8%

SMILES: CCOC(=O)[C@H](CCc1ccccc1)N[C@@H](C)C(=O)N1CCC[C@H]1C(=O)O [Enalapril]
- activation at 2 µM [1, 9]: 8.8%
- activation at 10 µM [1, 15]: -8.9%
- 0.1 µM (% DMSO) [2, 10]: 90.6 % DMSO
- 1 µM (% DMSO) [2, 11]: 90.6 % DMSO
- 10 µM (% DMSO) [2, 12]: 87.6 % DMSO

SMILES: C[C@H](N[C@@H](CCc1ccccc1)C(=O)O)C(=O)N1CCC[C@H]1C(=O)O [Enalaprilat]
- OL differentiation, 2 uM (% Quet) [1, 16]: -17.8 % Quet
- OL differentiation, 10 uM (% Quet) ([1]; 10 uM test compound, relative to quetiapine, sheet "All OLga data"): -49.3 % Quet
- 0.1 µM (% DMSO) ([2]; alamarBlue viability, NCC library compound at 0.1 µM, sheet "All Tox data"): 92.9 % DMSO
- 1 µM (% DMSO) ([2]; alamarBlue viability, NCC library compound at 1 µM, sheet "All Tox data"): 91.2 % DMSO
- 10 µM (% DMSO) ([2]; alamarBlue viability, NCC library compound at 10 µM, sheet "All Tox data"): 83.0 % DMSO

SMILES: CCN1CCN(c2cc3c(cc2F)c(=O)c(C(=O)O)cn3C2CC2)CC1 [Enrofloxacin]
- activation at 2 µM [1, 4]: -3.6%
- activation at 10 µM [1, 8]: 13.5%
- viability at 0.1 µM [2, 5]: 88.5%
- viability at 1 µM [2, 6]: 89%
- viability at 10 µM [2, 7]: 79.9%

SMILES: O=C(O[C@@H]1Cc2c(O)cc(O)cc2O[C@@H]1c1cc(O)c(O)c(O)c1)c1cc(O)c(O)c(O)c1 [Epigallocatechin gallate]
- OL differentiation, 0.4 uM (% Quet) ([1]; 0.4 uM test compound, relative to quetiapine, sheet "All OLga data"): -15.9 % Quet
- OL differentiation, 2 uM (% Quet) [1, 16]: 21.7 % Quet
- 0.1 µM (% DMSO) ([2]; alamarBlue viability of expanded OPCs, compound at 0.1 µM, sheet All Tox data): 81.9 % DMSO
- 1 µM (% DMSO) ([2]; alamarBlue viability of expanded OPCs, compound at 1 µM, sheet All Tox data): 78.8 % DMSO
- 10 µM (% DMSO) ([2]; alamarBlue viability of expanded OPCs, compound at 10 µM, sheet All Tox data): 48.5 % DMSO

SMILES: CNC[C@H](O)c1ccc(O)c(O)c1 [Epinephrine]
- activation at 2 µM [1, 9]: -7.6%
- activation at 10 µM [1, 15]: -15%
- 0.1 µM (% DMSO) [2, 10]: 101.9 % DMSO
- 1 µM (% DMSO) [2, 11]: 92.7 % DMSO
- 10 µM (% DMSO) [2, 12]: 81.7 % DMSO

SMILES: COc1cc(C)nc(-n2nc(C)cc2OC)n1 [Epirizole]
- activation at 2 µM [1, 4]: -9.9%
- activation at 10 µM [1, 8]: -10.5%
- viability at 0.1 µM [2, 5]: 106%
- viability at 1 µM [2, 6]: 110%
- viability at 10 µM [2, 7]: 112%

SMILES: CCOC(=O)CCC(=O)O[C@H]1[C@H](O[C@@H]2[C@@H](C)[C@H](O[C@H]3C[C@@](C)(OC)[C@@H](O)[C@H](C)O3)[C@@H](C)C(=O)O[C@H](CC)[C@@](C)(O)[C@H](O)[C@@H](C)C(=O)[C@H](C)C[C@@]2(C)O)O[C@H](C)C[C@@H]1N(C)C [Erythromycin Ethylsuccinate]
- activation at 2 µM [1, 4]: 1%
- activation at 10 µM [1, 8]: 8.7%
- 0.1 µM (% DMSO) [2, 10]: 95.4 % DMSO
- 1 µM (% DMSO) [2, 11]: 87.4 % DMSO
- 10 µM (% DMSO) [2, 12]: 75.9 % DMSO
